We go through 20 molecules from patent US11999715B2, “ASK1 inhibiting agents” (BIOGEN MA INC., priority 2018, dated 2024).

One data set deals with T1, ASK1/MAP3K5 (Homo sapiens, UniProt Q99683).
T1 sequence (Q99683 1-1374): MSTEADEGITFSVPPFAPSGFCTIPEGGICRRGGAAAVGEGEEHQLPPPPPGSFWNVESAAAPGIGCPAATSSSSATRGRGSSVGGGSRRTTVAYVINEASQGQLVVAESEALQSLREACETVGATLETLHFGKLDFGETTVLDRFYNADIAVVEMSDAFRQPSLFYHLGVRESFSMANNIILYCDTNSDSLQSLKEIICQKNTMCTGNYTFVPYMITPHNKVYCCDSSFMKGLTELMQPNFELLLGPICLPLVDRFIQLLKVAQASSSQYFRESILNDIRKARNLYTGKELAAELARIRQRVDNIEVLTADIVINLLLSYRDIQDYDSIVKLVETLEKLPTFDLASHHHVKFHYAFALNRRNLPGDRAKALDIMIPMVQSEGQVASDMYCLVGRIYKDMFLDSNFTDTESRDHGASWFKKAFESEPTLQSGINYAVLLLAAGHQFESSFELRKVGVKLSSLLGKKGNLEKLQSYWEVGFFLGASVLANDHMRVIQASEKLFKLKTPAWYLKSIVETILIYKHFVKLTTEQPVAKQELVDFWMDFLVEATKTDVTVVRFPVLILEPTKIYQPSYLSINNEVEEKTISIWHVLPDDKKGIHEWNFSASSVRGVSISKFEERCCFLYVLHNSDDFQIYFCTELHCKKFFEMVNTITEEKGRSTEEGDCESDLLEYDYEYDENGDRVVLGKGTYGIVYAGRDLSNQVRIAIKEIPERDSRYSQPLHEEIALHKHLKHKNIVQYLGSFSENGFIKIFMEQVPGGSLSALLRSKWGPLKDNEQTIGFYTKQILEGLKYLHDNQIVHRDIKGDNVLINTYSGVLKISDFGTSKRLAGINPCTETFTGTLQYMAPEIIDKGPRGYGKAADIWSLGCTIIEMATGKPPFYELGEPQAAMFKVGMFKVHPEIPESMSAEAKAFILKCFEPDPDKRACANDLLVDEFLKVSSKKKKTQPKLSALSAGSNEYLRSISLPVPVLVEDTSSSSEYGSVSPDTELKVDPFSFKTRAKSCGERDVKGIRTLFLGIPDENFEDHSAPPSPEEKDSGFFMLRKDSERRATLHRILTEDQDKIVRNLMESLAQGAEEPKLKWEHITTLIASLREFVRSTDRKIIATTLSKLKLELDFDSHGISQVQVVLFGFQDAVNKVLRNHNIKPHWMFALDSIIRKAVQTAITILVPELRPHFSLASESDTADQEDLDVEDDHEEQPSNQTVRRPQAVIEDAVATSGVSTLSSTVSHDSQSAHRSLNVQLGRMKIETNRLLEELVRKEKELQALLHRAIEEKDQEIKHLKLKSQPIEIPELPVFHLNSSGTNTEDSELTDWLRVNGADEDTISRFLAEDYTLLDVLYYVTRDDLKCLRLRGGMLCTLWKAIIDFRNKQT
Nature of the data set: ASK1/MAP3K5 kinase assay by Reaction Biology Corp. (headed ASK1 TR-FRET Assay). Type of data set: biochemical. Particulars: 20 μM myelin basic protein, 10 μM ATP. Summed up:
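Radiometric filter-binding assay with ASK1/MAP3K5, 20 μM MBP substrate and 10 μM ATP plus ^33P-ATP in HEPES pH 7.5 buffer with 1% DMSO. Compounds were preincubated with kinase 20 min, and the reaction then ran 2 hours at room temperature.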

Data set [1] has as its target T2, ASK1 T838 auto phosphorylation (Homo sapiens, UniProt Q99683).
T2 sequence (Q99683 1-1374): T1 sequence (Q99683 1-1374)
The data set can be described thus: ASK1 (AUTO PHOS T838) assay, MSD format, in HEK-293T cells transfected with ASK1-V5. It counts as cell-based. The following applies: ASK1 T838 auto phosphorylation in HEK-293T cells, 1 hr compound incubation; class symbols. Summed up:
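HEK-293T cells transiently transfected with full-length ASK1-V5 plasmid were replated, then treated 1 h at 37 °C with a 10-point, 3-fold series from 20 μM. Lysates were probed by MSD with anti-pASK1 T838 and a sulfo-tag secondary, read by chemiluminescence. IC50 came from a 4-parameter fit of normalized % activity.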

The nature of data set [2]: In vivo brain penetration, rat Kpuu study. The following applies: brain and plasma (unbound concentrations), IV infusion for four hours (1 mg/kg) to steady state, Kpuu=Cu,b/Cu,p.
Procedure: Example 113: In Vivo Brain Penetration To evaluate the CNS penetration of the compounds described herein, several compounds were selected for in vivo rat Kpuu studies. In these experiments the compounds are administered via an IV infusion (using N,N-dimethylacetamide:ethanol:1,2-propylene glycol:water in a 1:1:3:5 ratio as the vehicle) in the carotid artery for a period of four hours (1 mg/kg, 0.1 mg/mL) to reach steady state. After this time the plasma and brain concentration levels are quantified, and the values are adjusted by the measured protein binding in plasma and brain homogenate to calculate the Kpuu (see Di, […] . Blood-Brain Barrier in Drug Discovery (Wiley)) according to the equation below. Kpuu=Cu,b/Cu,p Wherein: • Cu,b=Unbound concentration in brain (C×fu,b). (C=concentration at steady state; fu,b=fraction unbound in brain) • And in which: Cu,p=Unbound concentration in plasma (C×fu,p). (C=concentration at steady state; fu,p=fraction unbound in plasma) Plasma and brain protein binding values were generated via the Rapid Equilibrium Dialysis method. The compound of interest was incubated in K2EDTA plasma and brain homogenate (homogenized 1:7 (w:v) in 1×PBS) purchased from BioIVT (Westbury, NY), opposite a buffered compartment of 100 mM Potassium phosphate/150 mM Sodium chloride, pH 7.4, at 1 μM for 4 hr and 6 hr respectively. At the conclusion of incubation samples were taken from both matrix and buffered compartments, matrix-matched using blank buffer and matrix, extracted with acetonitrile, diluted with water, and analyzed utilizing an Agilent RapidFire 365 high-throughput LC coupled with MS/MS detection via an AB Sciex 5500. Free fractions (fu) were then calculated by comparing internal standard/analyte peak-area ratios of matrix and buffered compartments. […] Total drug concentration in plasma and brain tissue was measured via well-established bioanalytical extraction (protein precipitation) and detection methods (LC-MS/MS).

For the molecule `C[C@@H](n1cnnc1-c1cccc(NC(=O)c2cn(C)nc2C(F)F)n1)C(F)(F)F` [Example 23, (R)-3-(Difluoromethyl)-1-methyl-N-(6-(4-(1,1,1-trifluoropropan-2-yl)-4H-1,2,4-triazol-3-yl)pyridin-2-yl)-1H-pyrazole-4-carboxamide], the IC50 was not above 100 nM on ASK1/MAP3K5 (class symbols) and not above 1000 nM in data set [1]. Further, the Kp uu at 4 h in data set [2] came to 0.14.
For `COc1nn(-c2cnccn2)cc1C(=O)Nc1cccc(-c2nncn2[C@H](C)C(F)(F)F)n1` [Example 88, (R)-3-Methoxy-1-(pyrazin-2-yl)-N-(6-(4-(1,1,1-trifluoropropan-2-yl)-4H-1,2,4-triazol-3-yl)pyridin-2-yl)-1H-pyrazole-4-carboxamide], the values for the IC50 (against ASK1/MAP3K5 (class symbols); in data set [1]) were 100 to 1000 nM and 1000 to 10000 nM, respectively.
As to `C[C@H](n1cnnc1-c1cccc(NC(=O)c2cn(-c3cnccn3)nc2C(F)F)n1)C(F)(F)F` [Example 89, (S)-3-(Difluoromethyl)-1-(pyrazin-2-yl)-N-(6-(4-(1,1,1-trifluoropropan-2-yl)-4H-1,2,4-triazol-3-yl)pyridin-2-yl)-1H-pyrazole-4-carboxamide], the concentration for half-maximal inhibition (IC50) is not above 100 nM on ASK1/MAP3K5 (class symbols) and not above 1000 nM in data set [1].
Turning to `COCCn1cc(C(=O)Nc2cccc(-c3cncn3C(C)C)n2)c(OC)n1` [Example 92, N-(6-(1-Isopropyl-1H-imidazol-5-yl)pyridin-2-yl)-3-methoxy-1-(2-methoxyethyl)-1H-pyrazole-4-carboxamide], the IC50 is not above 100 nM against ASK1/MAP3K5 (class symbols) and not above 1000 nM in data set [1].
Turning to `Cc1cncc(-n2cc(C(=O)Nc3cccc(-c4cncn4C(C)C)n3)c(C(F)F)n2)c1` [Example 93, 3-(Difluoromethyl)-N-(6-(1-isopropyl-1H-imidazol-5-yl)pyridin-2-yl)-1-(5-methylpyridin-3-yl)-1H-pyrazole-4-carboxamide], the results for the half-maximal inhibitory concentration (IC50) (against ASK1/MAP3K5 (class symbols); in data set [1]) were not above 100 nM and not above 1000 nM, respectively.
Turning to `CC(C)n1cncc1-c1cccc(NC(=O)c2cn(-c3cccnc3)nc2C(F)F)n1` [Example 94, 3-(Difluoromethyl)-N-(6-(1-isopropyl-1H-imidazol-5-yl)pyridin-2-yl)-1-(pyridin-3-yl)-1H-pyrazole-4-carboxamide], the results for the IC50 (against ASK1/MAP3K5 (class symbols); in data set [1]) were not above 100 nM and not above 1000 nM, respectively.
Consider `CC(C)n1cncc1-c1cccc(NC(=O)c2cn(-c3cncc(C#N)c3)nc2C(F)F)n1` [Example 95, 1-(5-Cyanopyridin-3-yl)-3-(difluoromethyl)-N-(6-(1-isopropyl-1H-imidazol-5-yl)pyridin-2-yl)-1H-pyrazole-4-carboxamide], for which the IC50 is not above 100 nM at ASK1/MAP3K5 (class symbols) and not above 1000 nM in data set [1].
`CC(C)n1cncc1-c1cccc(NC(=O)c2cn(-c3cncc(C4CC4)c3)nc2C(F)F)n1` [Example 96, 1-(5-Cyclopropylpyridin-3-yl)-3-(difluoromethyl)-N-(6-(1-isopropyl-1H-imidazol-5-yl)pyridin-2-yl)-1H-pyrazole-4-carboxamide]: the IC50 against ASK1/MAP3K5 (class symbols) is 100 to 1000 nM; in data set [1], not above 1000 nM.
Regarding `COc1cncc(-n2cc(C(=O)Nc3cccc(-c4cncn4C(C)C)n3)c(C(F)F)n2)c1` [Example 97, 3-(Difluoromethyl)-N-(6-(1-isopropyl-1H-imidazol-5-yl)pyridin-2-yl)-1-(5-methoxypyridin-3-yl)-1H-pyrazole-4-carboxamide], the results for the IC50 (against ASK1/MAP3K5 (class symbols); in data set [1]) were not above 100 nM and not above 1000 nM, respectively.
In the case of `CC(C)n1cncc1-c1cccc(NC(=O)c2cn(-c3cncc(N(C)C)c3)nc2C(F)F)n1` [Example 98, 3-(Difluoromethyl)-1-(5-(dimethylamino)pyridin-3-yl)-N-(6-(1-isopropyl-1H-imidazol-5-yl)pyridin-2-yl)-1H-pyrazole-4-carboxamide], the IC50 was 100 to 1000 nM at ASK1/MAP3K5 (class symbols) and not above 1000 nM in data set [1].
For `CC(C)n1cncc1-c1cccc(NC(=O)c2cn(-c3cncc(O)c3)nc2C(F)F)n1` [Example 99, 3-(Difluoromethyl)-1-(5-hydroxypyridin-3-yl)-N-(6-(1-isopropyl-1H-imidazol-5-yl)pyridin-2-yl)-1H-pyrazole-4-carboxamide], in that order: not above 100 nM and not above 1000 nM.
On to `CC(C)Oc1cncc(-n2cc(C(=O)Nc3cccc(-c4cncn4C(C)C)n3)c(C(F)F)n2)c1` [Example 100, 3-(Difluoromethyl)-1-(5-isopropoxypyridin-3-yl)-N-(6-(1-isopropyl-1H-imidazol-5-yl)pyridin-2-yl)-1H-pyrazole-4-carboxamide], for which the concentration for half-maximal inhibition (IC50) against ASK1/MAP3K5 (class symbols) is not above 100 nM; in data set [1], not above 1000 nM.
For `COc1nn(C)cc1C(=O)Nc1cccc(-c2cncn2C2CC2)c1` [Example 101, N-(3-(1-cyclopropyl-1H-imidazol-5-yl)phenyl)-3-methoxy-1-methyl-1H-pyrazole-4-carboxamide], in that order: 1000 to 10000 nM and more than 10000 nM.
Regarding `COc1nn(CC(F)(F)F)cc1C(=O)Nc1cccc(-c2nncn2C(C)C)n1` [Example 102, N-(6-(4-Isopropyl-4H-1,2,4-triazol-3-yl)pyridin-2-yl)-3-methoxy-1-(2,2,2-trifluoroethyl)-1H-pyrazole-4-carboxamide], the figures for the IC50 (against ASK1/MAP3K5 (class symbols); in data set [1]) were not above 100 nM and not above 1000 nM, respectively.
Turning to `COc1nn(CC(F)(F)F)cc1C(=O)Nc1cccc(-c2nncn2[C@@H](C)C(F)(F)F)n1` [Example 103, (S)-3-Methoxy-1-(2,2,2-trifluoroethyl)-N-(6-(4-(1,1,1-trifluoropropan-2-yl)-4H-1,2,4-triazol-3-yl)pyridin-2-yl)-1H-pyrazole-4-carboxamide], the IC50 was not above 100 nM at ASK1/MAP3K5 (class symbols) and not above 1000 nM in data set [1].
Turning to `COc1nn(CC(F)(F)F)cc1C(=O)Nc1cccc(-c2nncn2[C@@H](C)C(C)C)n1` [Example 104, (S)-3-Methoxy-N-(6-(4-(3-methylbutan-2-yl)-4H-1,2,4-triazol-3-yl)pyridin-2-yl)-1-(2,2,2-trifluoroethyl)-1H-pyrazole-4-carboxamide], the IC50 against ASK1/MAP3K5 (class symbols) was not above 100 nM; in data set [1], not above 1000 nM.
For the molecule `COc1nn(CC(F)(F)F)cc1C(=O)Nc1cccc(-c2nncn2C2CC2)n1` [Example 105, N-(6-(4-Cyclopropyl-4H-1,2,4-triazol-3-yl)pyridin-2-yl)-3-methoxy-1-(2,2,2-trifluoroethyl)-1H-pyrazole-4-carboxamide], the IC50 on ASK1/MAP3K5 (class symbols) is not above 100 nM; in data set [1], not above 1000 nM.
The corresponding values for `COc1nn(CC(F)(F)F)cc1C(=O)Nc1cccc(-c2cncn2C(C)C)n1` [Example 106, N-(6-(1-Isopropyl-1H-imidazol-5-yl)pyridin-2-yl)-3-methoxy-1-(2,2,2-trifluoroethyl)-1H-pyrazole-4-carboxamide] are not above 100 nM and not above 1000 nM.
Consider `COc1nn(C)cc1C(=O)Nc1cccc(-c2nncn2C2COC2)n1` [Example 107, 3-Methoxy-1-methyl-N-(6-(4-(oxetan-3-yl)-4H-1,2,4-triazol-3-yl)pyridin-2-yl)-1H-pyrazole-4-carboxamide], for which the IC50 at ASK1/MAP3K5 (class given in words) is not below 10000 nM; in data set [1] it was more than 10000 nM.
Regarding `COc1nn(C)cc1C(=O)Nc1cccc(-c2nncn2C2CCOCC2)n1` [Example 108, 3-Methoxy-1-methyl-N-(6-(4-(tetrahydro-2H-pyran-4-yl)-4H-1,2,4-triazol-3-yl)pyridin-2-yl)-1H-pyrazole-4-carboxamide], the values for the IC50 (at ASK1/MAP3K5 (class symbols); in data set [1]) were 100 to 1000 nM and 1000 to 10000 nM, respectively.
